Reference: US8680113B2, “BMI-1 protein expression modulators” (PTC Therapeutics, Inc., priority 2008, dated 2014)

What was measured:
Bmi-1 [1] = assay: Cell Model Assay: Bmi-1 expression in KG1; format: cell-based; conditions: KG1 (acute myelogenous leukemia)
Method: (§1) Using assay conditions known to those skilled in the art, the ability of the compounds described herein to reduce Bmi-1 expression in HT1080 (fibrosarcoma), U87-MG (glioblastoma), T98G (glioblastoma), K562 (chronic myelogenous leukemia) and KG1 (acute myelogenous leukemia) cell lines was tested (at test compound concentrations calculated from the ELISA assay data shown in Example 1) compared to puromycin as a control to provide the EC50 values shown in Table 2. The term “ND” means that data was not determined.

Bmi-1 [2] = assay: Sandwich ELISA Assay (Bmi-1 ELISA in HT-1080 cells); format: cell-based, human
How it was run: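 Lysate Bmi-1 was quantified against a recombinant GST-Bmi-1 standard (0-8000 pg/mL) by sandwich ELISA read at OD450 with OD570 reference. The ELISA used mouse monoclonal capture, rabbit anti-Bmi-1, HRP anti-rabbit IgG and TMB. Before lysis, HT-1080 cells seeded at 8000/well were exposed to compounds for 40-48 h at 37°C with 0.5% final DMSO.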

Bmi-1 [3] = assay: Cell Model Assay: Bmi-1 expression in K562; format: cell-based; conditions: K562 (chronic myelogenous leukemia)
Method: as §1

Bmi-1 [4] = assay: Cell Model Assay: Bmi-1 expression in HT1080; format: cell-based, human; conditions: HT1080 (fibrosarcoma)
Method: as §1

MCL-Rec1 = assay: Mantle Cell Lymphoma Assay: cytotoxicity, Rec-1; format: cell-based; conditions: 72 hrs in culture
Excerpt: (§2) MCL cell lines Jeko, Mino, and Rec-1 were provided by American Type Culture Collection: The Bioresource Center (Manassas, Va.). […] Carlsbad, Calif.) in T-75 culture flasks. Cell concentration was maintained between 2 to 3×10^5 cells/mL. Early passage cells (passages 2-4) were used for all experiments. Ficoll-Histopaque density sedimentation (Sigma Aldrich) was used for separation of debris and purification of cell lines prior to experiments. […] The cytotoxic effect of test compounds on the MCL-cell lines was assessed by measuring cell concentration and cell viability using a Beckman Coulter Vi-Cell Counter. Controls and treated cells were harvested and counted at day 3.

MCL-Jeko = assay: Mantle Cell Lymphoma Assay: cytotoxicity, Jeko; format: cell-based; conditions: 72 hrs in culture
Excerpt: as §2

MCL-Mino = assay: Mantle Cell Lymphoma Assay: cytotoxicity, Mino; format: cell-based; conditions: 72 hrs in culture
Excerpt: as §2

MM cell line = assay: Multiple Myeloma Assay; format: cell-based; conditions: 72 hrs in culture

In the case of Cc1cc(Br)c(Nc2nc(-c3cnc4ccc(Cl)cn34)cs2)c(Br)c1 [Cpd 25, 4-(6-chloroimidazo[1,2-a]pyridine-3-yl)-N-(2,6-dibromo-4-methylphenyl)thiazol-2-amine], the EC50 (Bmi-1 [1]) is reported as > 3 µM, the IC50 (Bmi-1 [2]) is reported as < 0.5 µM and the EC50 (Bmi-1 [3]) is reported as 0.1 µM.

COc1cc(Cl)c(Nc2nc(-c3cnc4ccc(Cl)cn34)cs2)c(Cl)c1 [Cpd 26, 4-(6-chloroimidazo[1,2-a]pyridine-3-yl)-N-(2,6-dichloro-4-methoxyphenyl)thiazol-2-amine] showed an EC50 (Bmi-1 [1]) of 0.317 µM, an IC50 (Bmi-1 [2]) of 1 to 3 µM and an EC50 (Bmi-1 [3]) of 0.234 µM.

In the case of COc1cccc(Nc2nccc(-c3cnc4ccccn34)n2)c1 [Cpd 28, 4-(imidazo[1,2-a]pyridine-3-yl)-N-(3-methoxyphenyl)pyrimidin-2-amine], the EC50 (Bmi-1 [1]) is reported as 0.048 µM, the IC50 (Bmi-1 [2]) is reported as < 0.5 µM and the EC50 (Bmi-1 [3]) is reported as 0.261 µM.

Cc1nc2ccc(Cl)cn2c1-c1csc(Nc2ccc(I)cc2)n1 [Cpd 29, 4-(6-chloro-2-methylimidazo[1,2-a]pyridin-3-yl)-N-(4-iodophenyl)thiazol-2-amine] was tested, and the EC50 (Bmi-1 [1]) was 0.304 µM, the IC50 (Bmi-1 [2]) was < 0.5 µM and the EC50 (Bmi-1 [3]) was 0.005 µM.

In the case of Cc1nc2ccc(Cl)cn2c1-c1csc(Nc2ccc3c(c2)OCO3)n1 [Cpd 30, N-(benzo[d][1,3]dioxol-5-yl)-4-(6-chloro-2-methylimidazo[1,2-a]pyridin-3-yl)thiazol-2-amine], the EC50 (Bmi-1 [1]) is reported as 0.048 µM, the IC50 (Bmi-1 [2]) is reported as < 0.5 µM and the EC50 (Bmi-1 [4]) is reported as 0.004 µM. The EC50 (Bmi-1 [3]) was < 0.004 µM.

For COCCOc1cc(Br)c(Nc2nc(-c3cnc4ccc(Cl)cn34)cs2)c(Br)c1 [Cpd 134, 4-(6-chloroimidazo[1,2-a]pyridin-3-yl)-N-[2,6-dibromo-4-(2-methoxyethoxy)phenyl]-1,3-thiazol-2-amine], the viability at 0.004 µM (MCL-Rec1; Homo sapiens, Rec1, dose 0.004 μM, read-out: Cell Viability, MCL-Rec1) was 89.43 ± 0.18%, the viability at 0.037 µM (MCL-Rec1; Homo sapiens, Rec1, dose 0.037 μM, read-out: Cell Viability, MCL-Rec1) was 88.9 ± 1% and the viability at 0.11 µM (MCL-Rec1; Homo sapiens, Rec1, dose 0.11 μM, read-out: Cell Viability, MCL-Rec1) was 90.2 ± 0.63%. For the same compound, the viability at 0.33 µM (MCL-Rec1; Homo sapiens, Rec1, dose 0.33 μM, read-out: Cell Viability, MCL-Rec1) was 88.63 ± 0.24%, the viability at 1 µM (MCL-Rec1; Homo sapiens, Rec1, dose 1 μM, read-out: Cell Viability, MCL-Rec1) was 88.43 ± 0.48% and the viability at 3 µM (MCL-Rec1; Homo sapiens, Rec1, dose 3 μM, read-out: Cell Viability, MCL-Rec1) was 86.67 ± 0.84%. The “Cell Concentration, MCL-Rec1” value (MCL-Rec1; dose 0.004 μM) was 0.84 ± 0.02 ×10^6, the “Cell Concentration, MCL-Rec1” value (MCL-Rec1; dose 0.037 μM) was 0.86 ± 0.02 ×10^6 and the “Cell Concentration, MCL-Rec1” value (MCL-Rec1; dose 0.11 μM) was 0.90 ± 0.01 ×10^6. The “Cell Concentration, MCL-Rec1” value (MCL-Rec1; dose 0.33 μM) was 0.85 ± 0.02 ×10^6, the “Cell Concentration, MCL-Rec1” value (MCL-Rec1; dose 1 μM) was 0.78 ± 0.03 ×10^6 and the “Cell Concentration, MCL-Rec1” value (MCL-Rec1; dose 3 μM) was 0.73 ± 0.02 ×10^6. For the same compound, the IC50 (Bmi-1 [2]) was < 0.5 µM, the “Cell Concentration, MCL-Jeko” value (MCL-Jeko; dose 0.004 μM) was 2.11 ± 0.04 ×10^6 and the viability at 0.004 µM (MCL-Jeko; dose 0.004 μM, read-out: Cell Viability, MCL-Jeko) was 94.1 ± 0.23%. For the same compound, the “Cell Concentration, MCL-Jeko” value (MCL-Jeko; dose 0.037 μM) was 2.11 ± 0.03 ×10^6, the viability at 0.037 µM (MCL-Jeko; dose 0.037 μM, read-out: Cell Viability, MCL-Jeko) was 94.37 ± 0.18% and the “Cell Concentration, MCL-Jeko” value (MCL-Jeko; dose 0.11 μM) was 1.97 ± 0.11 ×10^6. For the same compound, the viability at 0.11 µM (MCL-Jeko; dose 0.11 μM, read-out: Cell Viability, MCL-Jeko) was 93.77 ± 0.15%, the “Cell Concentration, MCL-Jeko” value (MCL-Jeko; dose 0.33 μM) was 1.95 ± 0.02 ×10^6 and the viability at 0.33 µM (MCL-Jeko; dose 0.33 μM, read-out: Cell Viability, MCL-Jeko) was 93.67 ± 0.13%. For the same compound, the “Cell Concentration, MCL-Jeko” value (MCL-Jeko; dose 1 μM) was 1.82 ± 0.05 ×10^6, the viability at 1 µM (MCL-Jeko; dose 1 μM, read-out: Cell Viability, MCL-Jeko) was 93.87 ± 0.06% and the “Cell Concentration, MCL-Jeko” value (MCL-Jeko; dose 3 μM) was 1.81 ± 0.02 ×10^6. For the same compound, the viability at 3 µM (MCL-Jeko; dose 3 μM, read-out: Cell Viability, MCL-Jeko) was 92.4 ± 0.22%, the viability at 0.004 µM (MCL-Mino; Homo sapiens, MINO, dose 0.004 μM, read-out: Cell Viability, MCL-Mino) was 84.8 ± 0.7% and the viability at 0.037 µM (MCL-Mino; Homo sapiens, MINO, dose 0.037 μM, read-out: Cell Viability, MCL-Mino) was 86.2 ± 0.8%. For the same compound, the viability at 0.11 µM (MCL-Mino; Homo sapiens, MINO, dose 0.11 μM, read-out: Cell Viability, MCL-Mino) was 84.6 ± 0.5%, the viability at 0.33 µM (MCL-Mino; Homo sapiens, MINO, dose 0.33 μM, read-out: Cell Viability, MCL-Mino) was 83.8 ± 0.2% and the viability at 1 µM (MCL-Mino; Homo sapiens, MINO, dose 1 μM, read-out: Cell Viability, MCL-Mino) was 81.4 ± 0.8%. The viability at 3 µM (MCL-Mino; Homo sapiens, MINO, dose 3 μM, read-out: Cell Viability, MCL-Mino) was 79 ± 0.8%, the “Cell Concentration, MCL-Mino” value (MCL-Mino; dose 0.004 μM) was 0.63 ± 0.01 ×10^6 and the “Cell Concentration, MCL-Mino” value (MCL-Mino; dose 0.037 μM) was 0.65 ± 0.01 ×10^6. The “Cell Concentration, MCL-Mino” value (MCL-Mino; dose 0.11 μM) was 0.65 ± 0.01 ×10^6, the “Cell Concentration, MCL-Mino” value (MCL-Mino; dose 0.33 μM) was 0.59 ± 0.01 ×10^6 and the “Cell Concentration, MCL-Mino” value (MCL-Mino; dose 1 μM) was 0.56 ± 0.02 ×10^6. For the same compound, the “Cell Concentration, MCL-Mino” value (MCL-Mino; dose 3 μM) was 0.47 ± 0.02 ×10^6, the “Cell Concentration, MM cell line” value (MM cell line; dose 0.004 μM) was 1.36 ± 0.01 ×10^6 and the viability at 0.004 µM (MM cell line; dose 0.004 μM) was 91.17 ± 0.43%. The “Cell Concentration, MM cell line” value (MM cell line; dose 0.037 μM) was 1.33 ± 0.01 ×10^6, the viability at 0.037 µM (MM cell line; dose 0.037 μM) was 90.27 ± 0.1% and the “Cell Concentration, MM cell line” value (MM cell line; dose 0.11 μM) was 1.28 ± 0.01 ×10^6. For the same compound, the viability at 0.11 µM (MM cell line; dose 0.11 μM) was 87.93 ± 0.5%, the “Cell Concentration, MM cell line” value (MM cell line; dose 0.33 μM) was 1.18 ± 0.04 ×10^6 and the viability at 0.33 µM (MM cell line; dose 0.33 μM) was 86.1 ± 0.31%. For the same compound, the “Cell Concentration, MM cell line” value (MM cell line; dose 1 μM) was 1.06 ± 0.01 ×10^6, the viability at 1 µM (MM cell line; dose 1 μM) was 83.47 ± 0.46% and the “Cell Concentration, MM cell line” value (MM cell line; dose 3 μM) was 0.75 ± 0.03 ×10^6. The viability at 3 µM (MM cell line; dose 3 μM) was 76.5 ± 1.48%.

In the case of CCOc1ccc(Nc2nccc(-c3cnc4ncccn34)n2)cc1 [Cpd 262, N-(4-ethoxyphenyl)-4-(imidazo[1,2-a]pyrimidin-3-yl)pyrimidin-2-amine], the IC50 (Bmi-1 [2]) is reported as < 0.5 µM.

CCN(CC)c1ccc(Nc2nccc(-c3cnc4ncccn34)n2)cc1 [Cpd 263, N,N-diethyl-N′-[4-(imidazo[1,2-a]pyrimidin-3-yl)pyrimidin-2-yl]benzene-1,4-diamine] was tested, and the IC50 (Bmi-1 [2]) was < 0.5 µM.

For CN(C)c1cccc(Nc2nccc(-c3cnc4ncccn34)n2)c1 [Cpd 264, N′-[4-(imidazo[1,2-a]pyrimidin-3-yl)pyrimidin-2-yl]-N,N-dimethylbenzene-1,3-diamine], the IC50 (Bmi-1 [2]) was < 0.5 µM.

In the case of CN(C)c1ccc(Nc2nccc(-c3cnc4ncccn34)n2)cc1 [Cpd 265, N′-[4-(imidazo[1,2-a]pyrimidin-3-yl)pyrimidin-2-yl]-N,N-dimethylbenzene-1,4-diamine], the IC50 (Bmi-1 [2]) is reported as 0.5 to 1 µM.

Fc1ccccc1Nc1nccc(-c2cnc3ncccn23)n1 [Cpd 266, N-(2-fluorophenyl)-4-(imidazo[1,2-a]pyrimidin-3-yl)pyrimidin-2-amine] was tested, and the IC50 (Bmi-1 [2]) was < 0.5 µM.

In the case of Fc1cccc(Nc2nccc(-c3cnc4ncccn34)n2)c1 [Cpd 267, N-(3-fluorophenyl)-4-(imidazo[1,2-a]pyrimidin-3-yl)pyrimidin-2-amine], the IC50 (Bmi-1 [2]) is reported as < 0.5 µM.

In the case of Fc1ccc(Nc2nccc(-c3cnc4ncccn34)n2)cc1 [Cpd 268, N-(4-fluorophenyl)-4-(imidazo[1,2-a]pyrimidin-3-yl)pyrimidin-2-amine], the IC50 (Bmi-1 [2]) is reported as < 0.5 µM.

Clc1cccc(Nc2nccc(-c3cnc4ncccn34)n2)c1 [Cpd 269, N-(3-chlorophenyl)-4-(imidazo[1,2-a]pyrimidin-3-yl)pyrimidin-2-amine] was tested, and the IC50 (Bmi-1 [2]) was < 0.5 µM.

For Brc1ccc(Nc2nccc(-c3cnc4ncccn34)n2)cc1 [Cpd 270, N-(4-bromophenyl)-4-(imidazo[1,2-a]pyrimidin-3-yl)pyrimidin-2-amine], the IC50 (Bmi-1 [2]) was < 0.5 µM.

In the case of CCc1nc2ncccn2c1-c1ccnc(Nc2ccc(Br)cc2)n1 [Cpd 271, N-(4-bromophenyl)-4-(2-ethylimidazo[1,2-a]pyrimidin-3-yl)pyrimidin-2-amine], the IC50 (Bmi-1 [2]) is reported as < 0.5 µM.

With “N-(4-ethoxyphenyl)-4-(2-methylimidazo[1,2-a]pyridin-3-yl)pyrimidin-2-amine [Cpd 128]” the IC50 (Bmi-1 [2]) was < 0.5 µM.
